Assay results taken from patent US4720503A, “N-substituted fused-heterocyclic carboxamide derivatives as dual cyclooxygenase and lipoxygenase inhibitors” (Merck & Co., Inc., priority 1985, dated 1988).
Blank lines part the entries; values can stand above or below the molecule they belong to.

Experiments:
[1] = biological target: cyclooxygenase (Homo sapiens, UniProt P23219); assay: cyclooxygenase enzyme assay, % inhibition (CO); format: biochemical; details: for inhibition at 0.5 µg/mL: Dosage 0.5 μg/ml; for inhibition at 1 µg/mL: Dosage 1.0 μg/ml; for inhibition at 5 µg/mL: Dosage 5.0 μg/ml; for inhibition at 0.1 µg/mL: Dosage 0.1 μg/ml
[2] = biological target: T1, 5-lipoxygenase (Homo sapiens, UniProt P09917); assay: 5-lipoxygenase enzyme assay, % inhibition (5-LO); format: biochemical; details: for inhibition at 1 µg/mL: Dosage 1.0 μg/ml
T1 sequence (P09917 1-674): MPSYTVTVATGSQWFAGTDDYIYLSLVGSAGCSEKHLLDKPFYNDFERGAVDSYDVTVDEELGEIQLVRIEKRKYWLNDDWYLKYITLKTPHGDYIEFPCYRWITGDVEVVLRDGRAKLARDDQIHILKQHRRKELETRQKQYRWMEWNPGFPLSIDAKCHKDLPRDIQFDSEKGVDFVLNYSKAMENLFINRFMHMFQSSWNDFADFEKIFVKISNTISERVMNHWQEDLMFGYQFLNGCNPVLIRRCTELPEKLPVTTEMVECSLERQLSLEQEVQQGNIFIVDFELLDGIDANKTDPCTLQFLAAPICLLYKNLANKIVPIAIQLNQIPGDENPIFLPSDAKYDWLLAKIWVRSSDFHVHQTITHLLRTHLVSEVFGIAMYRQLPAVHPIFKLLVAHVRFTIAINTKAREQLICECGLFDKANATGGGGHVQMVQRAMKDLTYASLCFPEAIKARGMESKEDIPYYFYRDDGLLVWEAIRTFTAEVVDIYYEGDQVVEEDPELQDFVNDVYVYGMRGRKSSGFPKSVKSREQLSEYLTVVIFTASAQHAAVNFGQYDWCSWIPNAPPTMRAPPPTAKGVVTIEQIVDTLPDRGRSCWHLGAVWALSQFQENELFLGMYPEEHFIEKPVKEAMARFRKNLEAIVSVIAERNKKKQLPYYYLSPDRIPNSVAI

[3] = solubility remark (footnote of table 9); format: physicochemical; details: footnote to 5-LO value at 100 μg/ml
[4] = test system: gastric acid secretion; details: S. Szabo et al., Experimentia, 38, 254, 1982; cited from earlier work
[5] = test system: gastric cytoprotection; details: S. Szabo et al., Experimentia, 38, 254, 1982; cited from earlier work

cyclooxygenase, sequence (P23219 24-599): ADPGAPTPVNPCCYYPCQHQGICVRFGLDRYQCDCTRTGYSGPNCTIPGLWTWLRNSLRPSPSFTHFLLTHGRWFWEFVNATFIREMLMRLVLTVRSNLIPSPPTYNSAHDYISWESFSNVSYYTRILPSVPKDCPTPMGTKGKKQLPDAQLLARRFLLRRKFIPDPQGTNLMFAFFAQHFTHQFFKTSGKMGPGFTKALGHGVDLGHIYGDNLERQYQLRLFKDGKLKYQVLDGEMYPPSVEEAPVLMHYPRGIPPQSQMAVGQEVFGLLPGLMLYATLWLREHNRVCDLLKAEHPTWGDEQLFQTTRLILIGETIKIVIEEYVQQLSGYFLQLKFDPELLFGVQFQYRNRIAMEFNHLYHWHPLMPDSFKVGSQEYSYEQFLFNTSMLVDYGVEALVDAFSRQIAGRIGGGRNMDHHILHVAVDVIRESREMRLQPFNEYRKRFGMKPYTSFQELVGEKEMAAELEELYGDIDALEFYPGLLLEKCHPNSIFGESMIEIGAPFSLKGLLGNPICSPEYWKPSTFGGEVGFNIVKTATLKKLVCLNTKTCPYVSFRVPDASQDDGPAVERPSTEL

inhibition at 0.5 µg/mL [1]: 95%
inhibition at 1 µg/mL [1]: 98%
inhibition at 2 µg/mL ([1]; Dosage 2.0 μg/ml): 98%
inhibition at 5 µg/mL [1]: 100%
inhibition at 0.5 µg/mL ([2]; Dosage 0.5 μg/ml): 30%
inhibition at 5 µg/mL ([2]; Dosage 5.0 μg/ml): 34%
SMILES: COC(=O)c1cc2oc(C(=O)NC=C(c3ccccc3)c3ccccc3)c(O)c2s1 [O phenyl phenyl CO2 CH3, N-(2,2-Diphenylethenyl)-5-carbomethoxy-3-hydroxythieno[3,2-b]furan-2-carboxamide]

inhibition at 0.1 µg/mL [1]: 49%
inhibition at 1 µg/mL [1]: 97%
inhibition at 5 µg/mL [1]: 98%
inhibition at 10 µg/mL ([1]; Dosage 10.0 μg/ml): 100%
inhibition at 0.1 µg/mL ([2]; Dosage 0.1 μg/ml): 11%
inhibition at 1 µg/mL [2]: 14%
inhibition at 10 µg/mL ([2]; Dosage 10.0 μg/ml): 66%
SMILES: Cc1ccc(C(=CNC(=O)c2sc3ccsc3c2O)c2ccco2)cc1 [S p-tolyl 2-furyl H, N-[2-(2-Furyl)-2-(4-methylphenyl)ethenyl]-3-hydroxythieno[3,2-b]thiophene-2-carboxamide]

inhibition at 0.01 µg/mL ([1]; Dosage 0.01 μg/ml): 9%
inhibition at 0.05 µg/mL ([1]; Dosage 0.05 μg/ml): 33%
inhibition at 0.5 µg/mL [1]: 80%
inhibition at 5 µg/mL [1]: 100%
inhibition at 100 µg/mL ([1]; Dosage 100 μg/ml): 100%
inhibition at 100 µg/mL [2]: 12%
solubility (footnote) [3]: very insoluble
SMILES: COC(=O)c1cc2sc(C(=O)NC=C(c3ccccc3)c3ccccc3)c(O)c2s1 [S phenyl phenyl CO2 CH3, 5-Carbomethoxy-N-(2,2-diphenylethenyl)-3-hydroxythieno[3,2-b]thiophene-2-carboxamide]

inhibition at 0.1 µg/mL [1]: 39%
inhibition at 0.48 µg/mL ([1]; Dosage 0.48 μg/ml): 99%
inhibition at 1 µg/mL [1]: 100%
inhibition at 2.4 µg/mL ([1]; Dosage 2.40 μg/ml): 100%
inhibition at 1 µg/mL [2]: 34%
SMILES: O=C(NC=C(c1ccccc1)c1ccccc1)c1sc2ccsc2c1O [S phenyl phenyl H, N-(2,2-diphenylethenyl)-3-hydroxythieno[3,2-b]thiophene-2-carboxamide]

SMILES: CCCCC[C@H](O)/C=C/[C@@H]1[C@@H](C/C=C\CCCC(=O)O)[C@H](O)C[C@H]1O [protaglandin F2B]
inhibition of gastric acid secretion [4]: does not inhibit gastric acid secretion
gastric cytoprotection [5]: does induce gastric cytoprotection
